Data taken from ChEMBL document CHEMBL1201862, “PubChem BioAssay data set” (2004).
Calls of active or inactive are those of the source.

Key:
[1] = target: Voltage-dependent T-type calcium channel subunit alpha-1H (Homo sapiens, UniProt O95180); format: functional;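 also: channel activity triggered by adding a high calcium stimulation buffer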
[2] = target: T1, Heat shock factor protein 1 (Mus musculus, UniProt P38532); assay: inhibition of MG132-induced HSE-luciferase signal, confirmation, cell-based, NIH3T3, luminescence, dose retest (AID 2382); format: functional;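 also: NIH3T3 fibroblasts with HSF1-driven luciferase reporter stressed by proteasome inhibitor MG132; luminescence from HSF1-driven luciferase expression after 8 hours of MG132 stress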
T1 sequence (P38532 whole entry): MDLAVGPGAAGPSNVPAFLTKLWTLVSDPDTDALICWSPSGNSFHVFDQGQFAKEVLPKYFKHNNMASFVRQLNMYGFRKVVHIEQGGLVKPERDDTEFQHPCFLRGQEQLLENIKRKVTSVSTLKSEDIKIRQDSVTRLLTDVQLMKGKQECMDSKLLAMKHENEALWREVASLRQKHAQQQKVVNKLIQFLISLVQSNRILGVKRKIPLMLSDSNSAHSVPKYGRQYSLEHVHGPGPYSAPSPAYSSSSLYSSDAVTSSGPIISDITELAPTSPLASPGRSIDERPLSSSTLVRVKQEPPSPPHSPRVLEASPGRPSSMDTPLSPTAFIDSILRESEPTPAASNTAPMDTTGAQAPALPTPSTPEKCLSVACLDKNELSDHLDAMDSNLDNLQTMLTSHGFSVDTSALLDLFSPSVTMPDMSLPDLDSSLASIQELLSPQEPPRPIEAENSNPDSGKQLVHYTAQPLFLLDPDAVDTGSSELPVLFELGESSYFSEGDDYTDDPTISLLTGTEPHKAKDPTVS

[3] = target: T2, Carboxy-terminal domain RNA polymerase II polypeptide A small phosphatase 1 (Homo sapiens, UniProt Q9GZU7); assay: inhibitors of CTDSP1, concentration-response testing, biochemical assay, absorbance-based, actives from ultra-high-throughput screening (AID 540297); format: functional
T2 sequence (Q9GZU7 whole entry): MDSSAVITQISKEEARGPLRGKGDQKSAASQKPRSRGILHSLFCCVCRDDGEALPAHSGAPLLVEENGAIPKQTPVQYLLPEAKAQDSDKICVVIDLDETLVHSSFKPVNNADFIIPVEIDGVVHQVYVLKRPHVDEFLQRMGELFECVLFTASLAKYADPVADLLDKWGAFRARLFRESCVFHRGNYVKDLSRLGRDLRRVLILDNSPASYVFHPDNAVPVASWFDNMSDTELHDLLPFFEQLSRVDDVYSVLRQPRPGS

[4] = cytotoxicity toward DRD oncogenic fibroblasts, dose response, cell-based, non-viral oncogenic, luminescence (AID 1934); format: functional; conditions: Homo sapiens
[5] = system: BJ; assay: cells; format: functional, cell-based; conditions: Homo sapiens
[6] = system: BJ; assay: cytotoxicity toward BJ-TERT fibroblasts, dose response, cell-based, RAS-independent, luminescence (AID 1933); format: functional; conditions: Homo sapiens
[7] = system: BJ; assay: cytotoxicity toward BJ-TERT-LT-ST fibroblasts, dose response, cell-based, RAS-independent, luminescence (AID 1935); format: functional; conditions: Homo sapiens;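 also: BJ fibroblasts immortalized with TERT plus LT and ST oncogenes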
[8] = target: T3, SUMO-activating enzyme (Homo sapiens, UniProt Q9UBT2); assay: SUMOylation inhibitor hit validation, confirmation, SUMOylation inhibitor project, biochemical, AlphaScreen (AID 2018); format: functional
T3 sequence (Q9UBE0 whole entry, the tested form may be a part): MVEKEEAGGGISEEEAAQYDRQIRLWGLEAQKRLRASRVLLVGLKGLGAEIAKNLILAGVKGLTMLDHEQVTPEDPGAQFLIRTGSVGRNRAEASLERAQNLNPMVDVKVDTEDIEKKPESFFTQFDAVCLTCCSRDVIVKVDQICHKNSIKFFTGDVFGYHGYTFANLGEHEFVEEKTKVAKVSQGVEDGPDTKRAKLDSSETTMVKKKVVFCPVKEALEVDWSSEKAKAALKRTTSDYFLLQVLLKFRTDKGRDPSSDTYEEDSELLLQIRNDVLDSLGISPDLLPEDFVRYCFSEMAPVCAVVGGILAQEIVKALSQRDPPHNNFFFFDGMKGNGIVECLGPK
T3 sequence (Q9UBT2 whole entry, the tested form may be a part): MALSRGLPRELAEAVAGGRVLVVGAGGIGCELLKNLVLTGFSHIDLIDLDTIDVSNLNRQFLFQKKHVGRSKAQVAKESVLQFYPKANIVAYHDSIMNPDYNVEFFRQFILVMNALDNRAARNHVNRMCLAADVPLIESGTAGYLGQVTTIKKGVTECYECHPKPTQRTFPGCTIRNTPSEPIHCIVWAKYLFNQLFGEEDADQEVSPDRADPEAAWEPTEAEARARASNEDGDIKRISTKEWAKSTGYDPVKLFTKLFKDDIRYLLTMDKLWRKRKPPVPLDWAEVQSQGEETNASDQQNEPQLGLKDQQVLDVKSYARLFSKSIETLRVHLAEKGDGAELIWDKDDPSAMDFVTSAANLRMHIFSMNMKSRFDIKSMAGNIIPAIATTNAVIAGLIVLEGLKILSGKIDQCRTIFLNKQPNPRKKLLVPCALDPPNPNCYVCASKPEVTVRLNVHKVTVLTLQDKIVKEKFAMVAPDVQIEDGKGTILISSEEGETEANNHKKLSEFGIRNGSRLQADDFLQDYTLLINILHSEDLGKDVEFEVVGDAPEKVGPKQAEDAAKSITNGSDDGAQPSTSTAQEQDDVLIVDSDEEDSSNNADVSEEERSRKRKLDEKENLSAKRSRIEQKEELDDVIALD

[9] = inhibitors of HIV Env-driven cell fusion, dose response, cherry-pick (AID 652057); format: functional, cell-based
[10] = ZM109 Env clade C HIV-1 fusion inhibitors, dose response, HeLa effector, CEM target cells, luciferase, cherry-pick (AID 652058); format: functional, cell-based
[11] = system: HEK293; assay: inhibitors of LMP1-driven NF-kB reporter, dose response, cell-based, HEK293, luciferase, cherry-pick (AID 588343); format: functional; conditions: Homo sapiens
[12] = microbe, parasite or virus in culture; format: functional; conditions: Mycobacterium tuberculosis
[13] = system: INS1; assay: beta cell apoptosis inhibitors, cytokine rescue, dose response, luminescence, retest (AID 449756); format: functional, cell-based; conditions: Rattus norvegicus;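 also: cell death triggered by IL-1 beta plus TNF-alpha plus IFN-gamma mixture; protective hits raise ATP signal compared with cytokine alone wells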
[14] = target: T3, SUMO-activating enzyme; assay: inhibitors of in vitro SUMOylation cascade, primary screen, biochemical, HTRF, uHTS (AID 2006); format: protein-complex assay
[15] = system: SN12K1; assay: cells; format: functional; conditions: Homo sapiens

Chain of Voltage-dependent T-type calcium channel subunit alpha-1H (O95180 whole entry): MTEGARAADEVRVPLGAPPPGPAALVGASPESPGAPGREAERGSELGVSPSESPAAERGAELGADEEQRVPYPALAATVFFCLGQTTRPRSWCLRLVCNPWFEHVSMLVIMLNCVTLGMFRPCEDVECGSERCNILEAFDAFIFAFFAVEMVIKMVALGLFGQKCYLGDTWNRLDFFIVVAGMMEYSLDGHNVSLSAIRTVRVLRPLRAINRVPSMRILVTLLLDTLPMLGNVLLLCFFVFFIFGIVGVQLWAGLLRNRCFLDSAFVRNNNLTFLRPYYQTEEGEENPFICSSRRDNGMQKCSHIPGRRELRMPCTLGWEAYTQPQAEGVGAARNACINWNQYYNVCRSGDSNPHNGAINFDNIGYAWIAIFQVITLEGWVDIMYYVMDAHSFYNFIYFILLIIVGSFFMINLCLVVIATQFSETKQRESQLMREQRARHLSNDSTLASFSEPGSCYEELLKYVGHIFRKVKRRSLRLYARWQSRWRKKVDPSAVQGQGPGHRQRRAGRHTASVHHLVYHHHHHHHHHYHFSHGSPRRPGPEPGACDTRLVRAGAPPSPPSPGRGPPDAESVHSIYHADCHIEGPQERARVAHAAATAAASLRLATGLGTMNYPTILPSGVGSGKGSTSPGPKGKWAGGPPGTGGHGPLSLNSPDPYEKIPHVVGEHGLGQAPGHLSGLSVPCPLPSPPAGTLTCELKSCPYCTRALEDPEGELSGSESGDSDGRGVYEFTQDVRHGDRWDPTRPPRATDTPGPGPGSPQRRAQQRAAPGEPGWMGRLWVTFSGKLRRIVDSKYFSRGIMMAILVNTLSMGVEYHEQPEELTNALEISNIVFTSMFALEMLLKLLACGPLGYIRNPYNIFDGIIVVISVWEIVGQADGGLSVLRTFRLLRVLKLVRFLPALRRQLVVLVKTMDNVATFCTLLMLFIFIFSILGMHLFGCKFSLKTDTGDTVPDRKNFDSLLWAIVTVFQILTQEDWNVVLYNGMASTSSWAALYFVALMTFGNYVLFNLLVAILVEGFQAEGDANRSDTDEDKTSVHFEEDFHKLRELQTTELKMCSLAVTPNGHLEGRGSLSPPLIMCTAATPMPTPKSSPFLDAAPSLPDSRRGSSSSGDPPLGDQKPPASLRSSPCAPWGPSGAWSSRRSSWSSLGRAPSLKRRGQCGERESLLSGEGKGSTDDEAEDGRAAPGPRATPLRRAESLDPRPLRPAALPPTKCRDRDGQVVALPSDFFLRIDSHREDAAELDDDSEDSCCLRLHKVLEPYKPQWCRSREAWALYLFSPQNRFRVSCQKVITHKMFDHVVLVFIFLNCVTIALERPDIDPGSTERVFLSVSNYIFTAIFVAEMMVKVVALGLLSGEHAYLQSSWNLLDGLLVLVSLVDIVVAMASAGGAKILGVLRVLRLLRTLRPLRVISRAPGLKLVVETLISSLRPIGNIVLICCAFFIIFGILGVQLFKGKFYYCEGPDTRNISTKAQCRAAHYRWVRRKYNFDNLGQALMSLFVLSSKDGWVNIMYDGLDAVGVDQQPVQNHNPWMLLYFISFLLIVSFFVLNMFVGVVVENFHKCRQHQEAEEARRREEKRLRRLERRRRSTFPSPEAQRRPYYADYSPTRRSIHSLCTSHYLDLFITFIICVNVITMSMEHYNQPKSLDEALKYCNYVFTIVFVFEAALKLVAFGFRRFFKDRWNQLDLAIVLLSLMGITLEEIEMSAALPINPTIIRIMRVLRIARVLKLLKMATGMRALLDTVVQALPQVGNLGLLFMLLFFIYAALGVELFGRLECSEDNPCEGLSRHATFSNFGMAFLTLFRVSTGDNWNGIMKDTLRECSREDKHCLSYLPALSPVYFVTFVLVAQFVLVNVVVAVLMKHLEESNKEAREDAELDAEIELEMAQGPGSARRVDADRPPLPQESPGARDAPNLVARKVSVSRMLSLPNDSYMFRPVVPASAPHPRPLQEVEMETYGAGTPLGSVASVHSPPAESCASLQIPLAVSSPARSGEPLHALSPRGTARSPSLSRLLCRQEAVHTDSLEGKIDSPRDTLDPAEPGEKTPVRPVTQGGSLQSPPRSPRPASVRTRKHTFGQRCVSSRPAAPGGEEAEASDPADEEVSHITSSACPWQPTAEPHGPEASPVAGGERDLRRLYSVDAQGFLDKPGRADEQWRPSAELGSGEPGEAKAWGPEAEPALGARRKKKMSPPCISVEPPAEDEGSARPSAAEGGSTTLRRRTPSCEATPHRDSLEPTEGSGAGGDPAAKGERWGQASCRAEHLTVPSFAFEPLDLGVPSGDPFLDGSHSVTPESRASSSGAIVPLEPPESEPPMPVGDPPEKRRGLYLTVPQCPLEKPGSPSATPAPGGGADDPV

CCOc1ccc(C(=O)Nc2c3c(nn2C(C)(C)C)CSC3)cc1OCC
EC50 [1]: 3.79 µM (active)

CC(C)[C@H](NC(=O)Cc1ccccc1)C(=O)OCc1cc(=O)n2c(n1)sc1ccccc12
EC50 [2]: 21.5 µM (active) | IC50 [3]: 3.58 µM (active)

Cc1cccc(NS(=O)(=O)c2ccc(NC(=O)CN(c3cc([N+](=O)[O-])ccc3C)S(C)(=O)=O)cc2)c1
EC50 [4]: > 150 µM (not active) | EC50 [5]: 7.28 µM (active) | EC50 [6]: 22.7 µM (active) | EC50 [7]: 7.77 µM (inconclusive)

CCOc1cc(/C=N/N=C(\N)c2nonc2N)cc(Br)c1OCc1cccc2ccccc12
IC50 [8]: 80 µM (active)

Cc1ccc(S(=O)(=O)N(C)C[C@H]2Oc3cc(-c4cccc(F)c4)ccc3S(=O)(=O)N([C@H](C)CO)C[C@H]2C)cc1
AC50 [9]: 1.47 µM (active) | AC50 [10]: < 0.26 µM (active)

O=Cc1ccc(-c2cccs2)s1
AC50 [11]: 6.76 µM (active)

CC(C)NC(=S)N/N=C/c1cc(Br)ccc1O
CC50 [12]: 38.5 µM (active) | AC50 [13]: 1.65 µM (active)

Cc1cccc(-c2nnc(S)n2/N=C/C=C/c2ccco2)c1
IC50 [14]: > 100 µM (inactive)

O=C(N/N=C/c1ccc(Cl)cc1)c1nc(O)c2cc([N+](=O)[O-])ccc2n1
IC50 [14]: 22 µM (active) | IC50 [8]: 21.5 µM (active)

CN(C)c1cccc(/N=C2/C=C(N3CCOCC3)CC(C)(C)C2)c1
IC50 [3]: 5.65 µM (active)

C/C=C/C1=C(Cl)C(=O)[C@@H](Cl)[C@@]1(O)C(=O)OC [(+)-CRYPTOSPORIPSIN]
GI50 [15]: 1.89 µM (inactive)
